{
  "source": "paper PMC5638327",
  "about": "“Comparison of bioavailability and antiplatelet action of ticagrelor in patients with ST-elevation myocardial infarction and non-ST-elevation myocardial infarction: A prospective, observational, single-centre study” (PLoS ONE, 2017)",
  "key": {"platelet reactivity [1]": {"system": "platelet reactivity", "set-up": "method as in PMID 27885888", "settings": "STEMI patients, first hour after ticagrelor LD, parenteral; cited from earlier work"}, "[2]": {"experiment": "Pharmacokinetic assessment: plasma concentrations by liquid chromatography tandem mass spectrometry after ticagrelor loading dose", "assay_type": "in vivo, human (patients with myocardial infarction)", "settings": "for AUC(0–6) / AUC(0–12): oral 180 mg ticagrelor LD, plasma, median [interquartile range]", "experimental": "Consecutive STEMI and NSTEMI patients admitted to the study site (Cardiology Department, Dr. A. Jurasz University Hospital, Bydgoszcz, Poland) were screened for eligibility. After admission to the study centre, confirmation of the initial diagnosis of STEMI or NSTEMI, and provision of a written informed consent to participate in the trial, all study participants received an oral 300 mg LD of plain aspirin (Polpharma SA, Starogard Gdański, Poland) and 180 mg LD ticagrelor in integral tablets with 250 mL tap water. Subsequently, within 15 minutes of ticagrelor LD, all patients underwent coronary angiography followed by PCI as required. During the periprocedural period, all study participants received unfractionated heparin in body weight adjusted dose according to the European Society of Cardiology (ESC) recommendations. Plasma concentrations of ticagrelor and its active metabolite, as well as their antiplatelet effect, were evaluated according to the sampling schedule employed at our centre in previous PK/PD study (pre-treatment, 0.5 h, 1 h, 2 h, 3 h, 4 h, 6 h and 12 h post ticagrelor LD).\nBlood samples for PK/PD evaluation were obtained from an 18-gauge cannula inserted into one of the forearm veins. The first 5 mL blood was discarded to avoid spontaneous platelet activation. In each patient specimens were collected at the eight pre-defined time. Detailed description of blood sample processing has been published in the study protocol (S1 File).\nTicagrelor and AR-C124910XX plasma concentrations were analyzed with liquid chromatography coupled with tandem mass spectrometry, using a validated method. Lower limits of quantification were 4.69 ng/mL for both ticagrelor and AR-C124910XX.\nStatistical calculations were performed using the Statistica 12.5 package (StatSoft, Tulsa, OK, USA). Pharmacokinetic calculations and plots were made using the Matlab R2014 software (Mathworks, Natick, MA, USA); trapezoidal rule was applied to calculate AUC. Data for pharmacokinetic features of ticagrelor and AR-C124910XX, pharmacodynamic outcome variables, creatinine, glomerular filtration rate and left ventricle ejection fraction were presented as medians and interquartile ranges. Data for heart rate, systolic and diastolic blood pressure, age and body mass index were presented as means with standard deviations. […] Continuous variables were compared between both study groups with the Student’s t-test and Mann-Whitney U test, depending on the presence or absence of the normal distribution (as assessed by the Shapiro-Wilk test). Comparisons between categorical variables were performed by the chi-square test, with Yates's correction if necessary, or using Fisher's exact test. […]\nBlood samples for pharmacokinetic and phar- infarction; PCI, percutaneous coronary intervention; PD, macodynamic assessment will be drawn at eight prede- pharmacodynamics; PK, pharmacokinetics; STEMI, ﬁned time points according to the blood sampling ST-elevation myocardial infarction. schedule already used at our site in a previous study\n( pretreatment baseline, 30 min, 1, 2, 3, 4, 6 andsamples will be stored at temperature below −60°C until 12 hours post-ticagrelor LD— as shown in ﬁgure 1). 31 analysed.\nAll enrolled patients with ﬁnally unconﬁrmed initial Venous blood for the assessment of pharmacodynam-diagnosis of AMI will be excluded from the primar y ana- ics with the vasodilator-stimulated phosphoprotein lysis. Patients qualiﬁed for urgent coronar y arter y bypass (VASP) assay and multiple electrode aggregometr y surgery within the blood sampling period also will not (MEA) will be collected into trisodium citrate and be included in the analysis. All study participants not hirudin vacuum test tubes, respectively. The ﬁrst 3–5mL receiving PCI will be reported. of blood will be discarded to avoid spontaneous platelet Study population activation. The pharmacodynamic analysis will be per- […]"}, "[3]": {"set-up": "method as in PMID 20551239", "settings": "blood plasma, after ticagrelor; cited from earlier work"}, "platelet reactivity [4]": {"system": "platelet reactivity", "set-up": "method as in PMID 27366874", "settings": "STEMI patients on prasugrel with concomitant morphine, intravenous; cited from earlier work"}},
  "data": [
    {"molecule": "CSCCNc1nc(SCCC(F)(F)F)nc2c1ncn2[C@@H]1O[C@H](COP(=O)(O)OP(=O)(O)C(Cl)(Cl)P(=O)(O)O)[C@@H](O)[C@H]1O", "note": "[cangrelor]", "values": [
      {"measurement": "effect on platelet reactivity and HPR", "setting": "platelet reactivity [1]", "result": "markedly reduced platelet reactivity and basically eliminated HPR phenomenon"}
    ]},
    {"molecule": "CCCSc1nc(N[C@@H]2C[C@H]2c2ccc(F)c(F)c2)c2nnn([C@@H]3C[C@H](O)[C@@H](O)[C@H]3O)c2n1", "note": "[AR-C124910XX]", "values": [
      {"measurement": "AUC(0–6)", "setting": "[2]; NSTEMI patients (n = 24)", "result": "712 [346–1616] ng*h/mL"},
      {"measurement": "AUC(0–12)", "setting": "[2]; NSTEMI patients", "result": "1523 [1005–2867] ng*h/mL"},
      {"measurement": "AUC(0–6)", "setting": "[2]; STEMI patients (n = 49)", "result": "473 [0–924] ng*h/mL"},
      {"measurement": "AUC(0–12)", "setting": "[2]; STEMI patients", "result": "1383 [766–2182] ng*h/mL"},
      {"measurement": "lower AUC(0–6) in STEMI than in NSTEMI patients", "setting": "[2]; first 6 h after 180 mg ticagrelor LD", "result": 34, "unit": "%"},
      {"measurement": "plasma concentration relative to the main compound", "setting": "[3]", "result": "30–40%"}
    ]},
    {"molecule": "abciximab (antibody, chains of the INN, looked up, V domains shown, Fab) VH: EVQLQQSGTVLARPGASVKMSCEASGYTFTNYWMHWVKQRPGQGLEWIGAIYPGNSDTSYIQKFKGKAKLTAVTSTTSVYMELSSLTNEDSAVYYCTLYDGYYVFAYWGQGTLVTVSA VL: EIVLTQSPVTLSVTPGDSVSLSCRASRDISNNLHWFQQTSHESPRLLIKYASQSMSGIPSRFSGSGSGTDFTLSINSVETEDFGMYFCQQTNSWPYTFGGGTKLEIK", "values": [
      {"measurement": "platelet inhibition", "setting": "platelet reactivity [4]", "result": "immediate and efficient platelet inhibition"}
    ]}
  ]
}
